{"source": "patent US20100092429A1", "about": "“Composition” (Danisco A/S, priority 2006, published 2010)", "key": {"[1]": {"system": "Bifidobacterium lactis BI-04", "type": "cell-based", "details": "1 w/v-% carbohydrate, 37° C."}, "[2]": {"system": "Lactobacilli and S. thermophilus", "assay": "Growth on single carbohydrates, summary for Lactobacilli and S. thermophilus", "type": "cell-based", "details": "summary in words of Tables 7 and 8"}}, "note": "Read-outs that look alike come from different tables or passages of the source.", "data": [{"smiles": "OC[C@H]1O[C@H](O)[C@H](O)[C@@H](O)[C@@H]1O", "note": "[Glucose, Alpha-D-Glucose]", "values": [{"measurement": "absorbance (OD 600 nm)", "setting": "[1]; Table 3 test, time 0 h", "value": 0.345}, {"measurement": "absorbance (OD 600 nm)", "setting": "[1]; Table 3 test, time 0.5 h", "value": 0.3508}, {"measurement": "absorbance (OD 600 nm)", "setting": "[1]; Table 3 test, time 1 h", "value": 0.3557}, {"measurement": "absorbance (OD 600 nm)", "setting": "[1]; Table 3 test, time 1.5 h", "value": 0.3612}, {"measurement": "absorbance (OD 600 nm)", "setting": "[1]; Table 3 test, time 2 h", "value": 0.366}, {"measurement": "absorbance (OD 600 nm)", "setting": "[1]; Table 3 test, time 2.5 h", "value": 0.3717}, {"measurement": "absorbance (OD 600 nm)", "setting": "[1]; Table 3 test, time 3 h", "value": 0.3794}, {"measurement": "absorbance (OD 600 nm)", "setting": "[1]; Table 3 test, time 3.5 h", "value": 0.3884}, {"measurement": "absorbance (OD 600 nm)", "setting": "[1]; Table 3 test, time 4 h", "value": 0.4001}, {"measurement": "absorbance (OD 600 nm)", "setting": "[1]; Table 3 test, time 4.5 h", "value": 0.4149}, {"measurement": "absorbance (OD 600 nm)", "setting": "[1]; Table 3 test, time 5 h", "value": 0.4363}, {"measurement": "absorbance (OD 600 nm)", "setting": "[1]; Table 3 test, time 5.5 h", "value": 0.4576}, {"measurement": "absorbance (OD 600 nm)", "setting": "[1]; Table 3 test, time 6 h", "value": 0.4843}, {"measurement": "absorbance (OD 600 nm)", "setting": "[1]; Table 3 test, time 6.5 h", "value": 0.5156}, {"measurement": "absorbance (OD 600 nm)", "setting": "[1]; Table 3 test, time 7 h", "value": 0.549}, {"measurement": "absorbance (OD 600 nm)", "setting": "[1]; Table 3 test, time 7.5 h", "value": 0.5855}, {"measurement": "absorbance (OD 600 nm)", "setting": "[1]; Table 3 test, time 8 h", "value": 0.6269}, {"measurement": "absorbance (OD 600 nm)", "setting": "[1]; Table 3 test, time 8.5 h", "value": 0.6688}, {"measurement": "absorbance (OD 600 nm)", "setting": "[1]; Table 3 test, time 9 h", "value": 0.7126}, {"measurement": "absorbance (OD 600 nm)", "setting": "[1]; Table 3 test, time 9.5 h", "value": 0.7528}, {"measurement": "absorbance (OD 600 nm)", "setting": "[1]; Table 3 test, time 10 h", "value": 0.7957}, {"measurement": "absorbance (OD 600 nm)", "setting": "[1]; Table 3 test, time 10.5 h", "value": 0.8301}, {"measurement": "absorbance (OD 600 nm)", "setting": "[1]; Table 3 test, time 11 h", "value": 0.8645}, {"measurement": "absorbance (OD 600 nm)", "setting": "[1]; Table 3 test, time 11.5 h", "value": 0.897}, {"measurement": "absorbance (OD 600 nm)", "setting": "[1]; Table 3 test, time 12 h", "value": 0.927}, {"measurement": "absorbance (OD 600 nm)", "setting": "[1]; Table 3 test, time 12.5 h", "value": 0.9517}, {"measurement": "absorbance (OD 600 nm)", "setting": "[1]; Table 3 test, time 13 h", "value": 0.9725}, {"measurement": "absorbance (OD 600 nm)", "setting": "[1]; Table 3 test, time 13.5 h", "value": 0.9899}, {"measurement": "absorbance (OD 600 nm)", "setting": "[1]; Table 3 test, time 14 h", "value": 1.0031}, {"measurement": "absorbance (OD 600 nm)", "setting": "[1]; Table 3 test, time 14.5 h", "value": 1.0267}, {"measurement": "absorbance (OD 600 nm)", "setting": "[1]; Table 3 test, time 15 h", "value": 1.0406}, {"measurement": "absorbance (OD 600 nm)", "setting": "[1]; Table 3 test, time 15.5 h", "value": 1.05}, {"measurement": "absorbance (OD 600 nm)", "setting": "[1]; Table 3 test, time 16 h", "value": 1.063}, {"measurement": "absorbance (OD 600 nm)", "setting": "[1]; Table 3 test, time 16.5 h", "value": 1.0769}, {"measurement": "absorbance (OD 600 nm)", "setting": "[1]; Table 3 test, time 17 h", "value": 1.0841}, {"measurement": "absorbance (OD 600 nm)", "setting": "[1]; Table 3 test, time 17.5 h", "value": 1.1062}, {"measurement": "absorbance (OD 600 nm)", "setting": "[1]; Table 3 test, time 18 h", "value": 1.1201}, {"measurement": "absorbance (OD 600 nm)", "setting": "[1]; Table 3 test, time 18.5 h", "value": 1.1494}, {"measurement": "absorbance (OD 600 nm)", "setting": "[1]; Table 3 test, time 19 h", "value": 1.1729}, {"measurement": "absorbance (OD 600 nm)", "setting": "[1]; Table 3 test, time 19.5 h", "value": 1.1942}, {"measurement": "absorbance (OD 600 nm)", "setting": "[1]; Table 3 test, time 20 h", "value": 1.2233}, {"measurement": "absorbance (OD 600 nm)", "setting": "[1]; Table 3 test, time 20.5 h", "value": 1.2352}, {"measurement": "absorbance (OD 600 nm)", "setting": "[1]; Table 3 test, time 21 h", "value": 1.27}, {"measurement": "absorbance (OD 600 nm)", "setting": "[1]; Table 3 test, time 21.5 h", "value": 1.2882}, {"measurement": "absorbance (OD 600 nm)", "setting": "[1]; Table 3 test, time 22 h", "value": 1.2935}, {"measurement": "absorbance (OD 600 nm)", "setting": "[1]; Table 3 test, time 22.5 h", "value": 1.312}, {"measurement": "absorbance (OD 600 nm)", "setting": "[1]; Table 3 test, time 23 h", "value": 1.3311}, {"measurement": "absorbance (OD 600 nm)", "setting": "[1]; Table 3 test, time 23.5 h", "value": 1.3389}, {"measurement": "absorbance (OD 600 nm)", "setting": "[1]; Table 3 test, time 24 h", "value": 1.3477}, {"measurement": "absorbance (OD 600 nm)", "setting": "[1]; Table 4 further test, time 0 h", "value": 0.358}, {"measurement": "absorbance (OD 600 nm)", "setting": "[1]; Table 4 further test, time 0.5 h", "value": 0.3615}, {"measurement": "absorbance (OD 600 nm)", "setting": "[1]; Table 4 further test, time 1 h", "value": 0.3671}, {"measurement": "absorbance (OD 600 nm)", "setting": "[1]; Table 4 further test, time 1.5 h", "value": 0.3772}, {"measurement": "absorbance (OD 600 nm)", "setting": "[1]; Table 4 further test, time 2 h", "value": 0.3899}, {"measurement": "absorbance (OD 600 nm)", "setting": "[1]; Table 4 further test, time 2.5 h", "value": 0.407}, {"measurement": "absorbance (OD 600 nm)", "setting": "[1]; Table 4 further test, time 3 h", "value": 0.4301}, {"measurement": "absorbance (OD 600 nm)", "setting": "[1]; Table 4 further test, time 3.5 h", "value": 0.4552}, {"measurement": "absorbance (OD 600 nm)", "setting": "[1]; Table 4 further test, time 4 h", "value": 0.4845}, {"measurement": "absorbance (OD 600 nm)", "setting": "[1]; Table 4 further test, time 4.5 h", "value": 0.5215}, {"measurement": "absorbance (OD 600 nm)", "setting": "[1]; Table 4 further test, time 5 h", "value": 0.5712}, {"measurement": "absorbance (OD 600 nm)", "setting": "[1]; Table 4 further test, time 5.5 h", "value": 0.6208}, {"measurement": "absorbance (OD 600 nm)", "setting": "[1]; Table 4 further test, time 6 h", "value": 0.6769}, {"measurement": "absorbance (OD 600 nm)", "setting": "[1]; Table 4 further test, time 6.5 h", "value": 0.7519}, {"measurement": "absorbance (OD 600 nm)", "setting": "[1]; Table 4 further test, time 7 h", "value": 0.824}, {"measurement": "absorbance (OD 600 nm)", "setting": "[1]; Table 4 further test, time 7.5 h", "value": 0.8944}, {"measurement": "absorbance (OD 600 nm)", "setting": "[1]; Table 4 further test, time 8 h", "value": 0.9606}, {"measurement": "absorbance (OD 600 nm)", "setting": "[1]; Table 4 further test, time 8.5 h", "value": 1.0277}, {"measurement": "absorbance (OD 600 nm)", "setting": "[1]; Table 4 further test, time 9 h", "value": 1.0871}, {"measurement": "absorbance (OD 600 nm)", "setting": "[1]; Table 4 further test, time 9.5 h", "value": 1.1209}, {"measurement": "absorbance (OD 600 nm)", "setting": "[1]; Table 4 further test, time 10 h", "value": 1.1556}, {"measurement": "absorbance (OD 600 nm)", "setting": "[1]; Table 4 further test, time 10.5 h", "value": 1.189}, {"measurement": "absorbance (OD 600 nm)", "setting": "[1]; Table 4 further test, time 11 h", "value": 1.2217}, {"measurement": "absorbance (OD 600 nm)", "setting": "[1]; Table 4 further test, time 11.5 h", "value": 1.2528}, {"measurement": "absorbance (OD 600 nm)", "setting": "[1]; Table 4 further test, time 12 h", "value": 1.2826}, {"measurement": "absorbance (OD 600 nm)", "setting": "[1]; Table 4 further test, time 12.5 h", "value": 1.3101}, {"measurement": "absorbance (OD 600 nm)", "setting": "[1]; Table 4 further test, time 13 h", "value": 1.3368}, {"measurement": "absorbance (OD 600 nm)", "setting": "[1]; Table 4 further test, time 13.5 h", "value": 1.3586}, {"measurement": "absorbance (OD 600 nm)", "setting": "[1]; Table 4 further test, time 14 h", "value": 1.3745}, {"measurement": "absorbance (OD 600 nm)", "setting": "[1]; Table 4 further test, time 14.5 h", "value": 1.388}, {"measurement": "absorbance (OD 600 nm)", "setting": "[1]; Table 4 further test, time 15 h", "value": 1.4068}, {"measurement": "absorbance (OD 600 nm)", "setting": "[1]; Table 4 further test, time 15.5 h", "value": 1.4166}, {"measurement": "absorbance (OD 600 nm)", "setting": "[1]; Table 4 further test, time 16 h", "value": 1.43}, {"measurement": "absorbance (OD 600 nm)", "setting": "[1]; Table 4 further test, time 16.5 h", "value": 1.4441}, {"measurement": "absorbance (OD 600 nm)", "setting": "[1]; Table 4 further test, time 17 h", "value": 1.4486}, {"measurement": "absorbance (OD 600 nm)", "setting": "[1]; Table 4 further test, time 17.5 h", "value": 1.4526}, {"measurement": "absorbance (OD 600 nm)", "setting": "[1]; Table 4 further test, time 18 h", "value": 1.4654}, {"measurement": "absorbance (OD 600 nm)", "setting": "[1]; Table 4 further test, time 18.5 h", "value": 1.4724}, {"measurement": "absorbance (OD 600 nm)", "setting": "[1]; Table 4 further test, time 19 h", "value": 1.472}, {"measurement": "absorbance (OD 600 nm)", "setting": "[1]; Table 4 further test, time 19.5 h", "value": 1.4796}, {"measurement": "absorbance (OD 600 nm)", "setting": "[1]; Table 4 further test, time 20 h", "value": 1.4864}, {"measurement": "absorbance (OD 600 nm)", "setting": "[1]; Table 4 further test, time 20.5 h", "value": 1.491}, {"measurement": "absorbance (OD 600 nm)", "setting": "[1]; Table 4 further test, time 21 h", "value": 1.4946}, {"measurement": "absorbance (OD 600 nm)", "setting": "[1]; Table 4 further test, time 21.5 h", "value": 1.4988}, {"measurement": "absorbance (OD 600 nm)", "setting": "[1]; Table 4 further test, time 22 h", "value": 1.5015}, {"measurement": "absorbance (OD 600 nm)", "setting": "[1]; Table 4 further test, time 22.5 h", "value": 1.5046}, {"measurement": "absorbance (OD 600 nm)", "setting": "[1]; Table 4 further test, time 23 h", "value": 1.5061}, {"measurement": "absorbance (OD 600 nm)", "setting": "[1]; Table 4 further test, time 23.5 h", "value": 1.5092}, {"measurement": "absorbance (OD 600 nm)", "setting": "[1]; Table 4 further test, time 24 h", "value": 1.5092}, {"measurement": "fermentation of the carbohydrate by Lactobacilli and S. thermophilus", "setting": "[2]", "value": "all these bacteria fermented with glucose"}]}]}
